Like-named read-outs stand apart in the source and are kept apart here.

Data on 1 molecule can be found in article PMC11345830, “Exploration of Hydrazide-Based HDAC8 PROTACs for the Treatment of Hematological Malignancies and Solid Tumors” (Journal of Medicinal Chemistry, 2024).

The test system of test [1] is Jurkat cells. The test can be described thus: Cell death determination by flow cytometry (Hoechst 33342/PI), Jurkat. Format: cell-based. Particulars: 5 μM, 48 h. The procedure:
Jurkat cells (5 × 10^5) were seeded on 6-well plates. The next day, cells were treated with indicated concentrations of compounds for 48 h. Cells were harvested after incubation, washed twice in cold PBS, centrifuged, and stained with 7 μM Hoechst 33342 and 2 μM of Propidium iodide (PI) sequentially, and then determined by NovoCyte Quanteon Flow Cytometer (Agilent Technologies, CA, USA). Cells stained only with Hoechst 33342 were counted as live cells, while cells stained with both Hoechst 33342 and PI were counted as dead cells.

A further test has as its system acetyl-SMC3 (Ac-SMC3). As to the kind of experiment: Ac-SMC3 level in HCT116 cells, Western blot. Format: cell-based. Particulars: 6 h.
Test [2] deals with Jurkat cells. As to the kind of experiment: Cell cycle analysis, Jurkat. Format: cell-based. Particulars: 48 h, control group 43.5%. The procedure:
Jurkat cells (5 × 10^5) and HCT116 cells (3 × 10^5) were seeded on 6-well plates. The next day, cells were treated with indicated concentrations of compounds for 48 h. Cells were harvested after incubation, washed twice in cold PBS, centrifuged, and stained with a solution containing 20 μg/mL of Propidium iodide (PI) and 0.1% (v/v) Triton-X100 for 15 min at room temperature, followed by detection with NovoCyte Quanteon Flow Cytometer (Agilent Technologies, CA, USA).

Test [3] has as its system acetyl-histone H3 (Ac-HH3). The test can be described thus: Ac-HH3 level in Jurkat cells, Western blot. Format: cell-based. Particulars: 6 h. On the technique in general: A western blot detects proteins with antibodies after separation by electrophoresis.
The target of another test is T1, HDAC11 (Homo sapiens, UniProt Q96DB2).
T1 construct: endogenous in cells; host or cells: Jurkat
T1 sequence (Q96DB2 1-347): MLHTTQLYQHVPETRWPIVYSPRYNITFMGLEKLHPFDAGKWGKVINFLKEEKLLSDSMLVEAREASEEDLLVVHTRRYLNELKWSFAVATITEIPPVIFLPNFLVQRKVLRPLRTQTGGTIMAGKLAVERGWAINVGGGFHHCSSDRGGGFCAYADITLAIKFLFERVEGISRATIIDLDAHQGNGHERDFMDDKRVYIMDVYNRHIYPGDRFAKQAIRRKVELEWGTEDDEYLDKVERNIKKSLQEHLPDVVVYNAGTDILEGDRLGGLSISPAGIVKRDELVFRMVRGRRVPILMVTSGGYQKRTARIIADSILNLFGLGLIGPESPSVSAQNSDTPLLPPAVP
As to the kind of experiment: HDAC11 level in Jurkat cells, Western blot. Format: cell-based. Particulars: 6 h.

The test system of a further test is STAT3. Particulars: 24 h. The source says: We also explored a potential by-stander effect of HDAC8 degradation. It has been reported that HDAC8 can form a corepressor complex with STAT3 and release of the HDAC8 corepressor complex can recruit p300, Sp3, and other factors that activate gene transcription in colon cancer HCT116 cells.[20]
Another test has as its target T2, GSPT1 (Homo sapiens, UniProt P15170).
T2 construct: endogenous in cells; host or cells: Jurkat
The test can be described thus: GSPT1 level in Jurkat cells, Western blot. Particulars: 6 h. Format: cell-based.

Test [4] has as its system Jurkat cells. The test can be described thus: Lipid peroxidation detection (BODIPY 581/591 C11), Jurkat. Format: cell-based. Particulars: 10 μM, 24 h. The procedure:
(§1) Jurkat cells (5 × 10^5), HCT116 cells (3 × 10^5) and THP-1 cells (5 × 10^5) were seeded on 6-well plates. The next day, cells were treated with indicated concentrations of compounds for 24 or 48 h. Then, cells were stained with 1.3 μM of BODIPY 581/591 C11 (Invitrogen, D3861) for another 1 h at 37 °C. Later, cells were harvested and washed three times with ice-cold PBS, followed by resuspended in FACS buffer (1% BSA in PBS). Lipid peroxidation was determined by NovoCyte Quanteon Flow Cytometer (Agilent Technologies, CA, USA).

The test system of another test is HEL cells. The test can be described thus: Cell viability MTS assay, HEL. Type of test: cell-based. Particulars: ratio of IC50 values. The procedure:
MTS assay was used to measure the cell viability. For single treatment, Jurkat, THP-1 and HEL (8000 cells/well), HCT116 and A549 (2000 cells/well) were seeded in 96-well plates in 100 μL complete medium. After overnight incubation, 50 μL of media containing various concentrations of compounds or the vehicle were added to each well. For cotreatment, cells were seeded in 96-well plates in 50 μL complete medium. After overnight incubation, 50 μL of Z-VAD-FMK, Nec-1, Fer-1, CQ, and other indicated compounds were added to each well. One hour later, 50 μL of media containing various concentrations of compounds were added to each well. After 72 h of treatment, 20 μL of CellTiter 96 AQueous One Solution reagent (Promega, Madison, USA) was added to each well according to manufacturer’s protocol. Plates were incubated at 37 °C for 1–2 h. The absorbance was determined at a wavelength of 490 nm using a Synergy H1 plate reader (Biotek, Winooski, VT, USA).

The subject of the next test is HCT116 cells. As to the kind of experiment: Lipid peroxidation detection (BODIPY 581/591 C11), HCT116. Particulars: 24 h, low micromolar concentrations. Type of test: cell-based. Here is the method:
as §1

A further test addresses T3, IKZF3 (Homo sapiens, UniProt Q9UKT9).
T3 construct: endogenous in cells; host or cells: Jurkat
As to the kind of experiment: IKZF3 level in Jurkat cells, Western blot. Type of test: cell-based. Particulars: 6 h.

A further test addresses T4, HDAC4 (Homo sapiens, UniProt P56524).
T4 construct: endogenous in cells; host or cells: Jurkat
As to the kind of experiment: HDAC4 level in Jurkat cells, Western blot. Format: cell-based. Particulars: 6 h.

T3 sequence (Q9UKT9 whole entry): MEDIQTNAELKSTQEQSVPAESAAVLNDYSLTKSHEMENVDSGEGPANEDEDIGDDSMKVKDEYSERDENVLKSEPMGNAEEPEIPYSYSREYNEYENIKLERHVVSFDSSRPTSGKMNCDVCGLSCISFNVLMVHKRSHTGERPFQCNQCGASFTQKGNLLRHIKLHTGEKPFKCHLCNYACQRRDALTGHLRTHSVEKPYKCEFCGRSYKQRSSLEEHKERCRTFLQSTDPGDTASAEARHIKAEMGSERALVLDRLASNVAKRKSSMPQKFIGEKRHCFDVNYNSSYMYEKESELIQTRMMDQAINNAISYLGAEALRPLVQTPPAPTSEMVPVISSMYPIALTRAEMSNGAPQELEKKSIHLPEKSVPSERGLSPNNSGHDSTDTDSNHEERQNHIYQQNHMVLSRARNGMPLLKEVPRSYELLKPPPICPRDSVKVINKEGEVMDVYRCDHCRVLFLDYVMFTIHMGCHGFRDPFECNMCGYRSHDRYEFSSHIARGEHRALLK
T2 sequence (P15170 whole entry): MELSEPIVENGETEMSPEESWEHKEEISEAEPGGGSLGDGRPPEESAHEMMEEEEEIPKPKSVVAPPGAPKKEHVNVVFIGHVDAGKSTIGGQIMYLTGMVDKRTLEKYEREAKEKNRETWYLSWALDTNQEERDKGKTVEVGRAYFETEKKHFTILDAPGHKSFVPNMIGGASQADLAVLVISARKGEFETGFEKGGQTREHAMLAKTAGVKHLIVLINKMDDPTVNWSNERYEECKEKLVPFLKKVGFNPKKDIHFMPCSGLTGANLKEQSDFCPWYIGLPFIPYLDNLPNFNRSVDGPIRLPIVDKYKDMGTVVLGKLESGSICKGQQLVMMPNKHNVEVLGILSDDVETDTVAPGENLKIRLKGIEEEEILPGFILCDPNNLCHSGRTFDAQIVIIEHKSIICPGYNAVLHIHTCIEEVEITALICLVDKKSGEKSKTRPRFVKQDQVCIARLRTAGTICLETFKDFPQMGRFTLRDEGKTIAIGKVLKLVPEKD
T4 sequence (P56524 whole entry): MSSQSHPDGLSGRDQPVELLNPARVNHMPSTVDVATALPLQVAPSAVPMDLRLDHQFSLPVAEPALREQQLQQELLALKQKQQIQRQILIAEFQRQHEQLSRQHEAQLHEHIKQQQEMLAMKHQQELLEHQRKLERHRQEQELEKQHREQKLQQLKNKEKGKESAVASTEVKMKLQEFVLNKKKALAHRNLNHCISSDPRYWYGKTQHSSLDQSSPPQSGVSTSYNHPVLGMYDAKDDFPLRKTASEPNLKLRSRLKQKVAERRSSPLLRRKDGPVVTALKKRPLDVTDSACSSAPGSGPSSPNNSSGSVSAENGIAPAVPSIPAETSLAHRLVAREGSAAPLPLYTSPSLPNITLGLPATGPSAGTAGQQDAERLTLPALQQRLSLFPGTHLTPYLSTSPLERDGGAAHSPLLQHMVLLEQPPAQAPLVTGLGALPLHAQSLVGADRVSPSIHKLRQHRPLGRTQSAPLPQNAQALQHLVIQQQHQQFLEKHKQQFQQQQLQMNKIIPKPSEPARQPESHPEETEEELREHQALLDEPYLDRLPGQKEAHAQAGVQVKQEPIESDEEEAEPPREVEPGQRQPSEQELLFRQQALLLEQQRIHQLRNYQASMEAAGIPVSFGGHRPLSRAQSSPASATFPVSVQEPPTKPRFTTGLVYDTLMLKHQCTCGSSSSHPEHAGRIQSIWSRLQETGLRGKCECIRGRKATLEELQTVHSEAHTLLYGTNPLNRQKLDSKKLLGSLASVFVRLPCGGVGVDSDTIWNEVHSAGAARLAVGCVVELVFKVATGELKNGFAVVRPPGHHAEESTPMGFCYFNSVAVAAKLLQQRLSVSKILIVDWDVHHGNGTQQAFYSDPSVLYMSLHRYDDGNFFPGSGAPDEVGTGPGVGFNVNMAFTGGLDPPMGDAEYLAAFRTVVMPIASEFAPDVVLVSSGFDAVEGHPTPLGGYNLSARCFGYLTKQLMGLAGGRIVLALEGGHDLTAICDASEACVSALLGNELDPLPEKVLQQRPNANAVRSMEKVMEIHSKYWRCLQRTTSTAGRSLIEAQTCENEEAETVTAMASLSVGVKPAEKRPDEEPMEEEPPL

`CCCCCCNNC(=O)c1ccc(CNC(=O)CN2CCC(c3ccc(NC4CCC(=O)NC4=O)cc3)CC2)cc1` (stereo not shown) [Z16, 2-(4-(4-((2,6-Dioxopiperidin-3-yl)amino)phenyl)piperidin-1-yl)-N-(4-(2-hexylhydrazine-1-carbonyl)benzyl)acetamide] had a cell death induced with Jurkat cells [1] of 10%. Moreover, in the test on acetyl-SMC3 (Ac-SMC3), the “concentration at which increased acetylation of SMC3 started” value stood at 40 nM. Also, the “proportion of cells at G0/G1 phase” value is on record as 48.4% in the test on Jurkat cells [2] (0.13 μM), 52.2% with Jurkat cells [2] (0.37 μM), 61% with Jurkat cells [2] (1.1 μM) and 68.2% in the test on Jurkat cells [2] (3.3 μM). The “level of Ac-HH3 at 1 μM (in words)” value in test [3] was “significantly increase”. In addition, the “HDAC11 degradation (in words)” value on HDAC11 is given as “no obvious”. Also, the “STAT3 degradation (in words)” value in the test with STAT3 (HCT116 cells) and in the test with STAT3 (Jurkat cells) was “did not induce STAT3 degradation” each time. Moreover, the “intracellular level of GSPT1 (in words)” value on GSPT1 is reported as “did not significantly affect”. The lipid peroxidation induced entry in the test on Jurkat cells [4] was “over 40%”. Also, the “less potent than SAHA against HEL cells” value in the test on HEL cells was “about 10 fold”. Further, the “lipid peroxidation (in words)” value in the test with HCT116 cells is “induced lipid peroxidation in a dose-dependent manner”. Besides, the “intracellular level of IKZF3 (in words)” value on IKZF3 was “did not significantly affect”. For the same molecule, the “HDAC4 degradation (in words)” value at HDAC4 was “no obvious”.
